One assay has as its system MCF‐10A cells. The assay is described as follows: Cell viability in nontransformed cell line MCF-10A. Format: cell-based. As to conditions: Homo sapiens. The source says:
Thus, further optimization will be required to improve the therapeutic index.
FIGURE 5 Dose‐dependent effects of compound treatment (5b and 5f) on nontransformed breast cell viability across MCF‐10A.

In the next assay the target is HDAC3 (Homo sapiens, UniProt O15379). Put plainly: Selectivity profile, single dose 0.5 µM, HDAC3. Format: biochemical. As to conditions: remaining enzyme activity; single‐dose duplicate mode at 0.5 μM; read-out: Enzyme % activity (relative to DMSO controls) at 0.5 µM, HDAC3. As for the experimental part: (§1) The inhibitory profiles of 5b and 5f were evaluated against selected HDAC isoforms (HDAC1, HDAC3, HDAC4, HDAC8, and HDAC10) and PI3K isoforms (PI3Kδ, PI3Kγ, and PI3Kβ) at a fixed concentration of 0.5 µM (Table 3). […] While we explored the phenyl ring in the linker region to achieve selectivity for the HDAC6 isoform, we still observed HDAC class I inhibition. […] It is important to highlight that PI3Kδ is mainly expressed in hematopoietic system and plays roles in leukocyte signaling, T‐cell activation, and immune cell trafficking. FDA‐approved drug idelalisib is a selective PI3Kδ inhibitor in B‐cell malignancies; however, this drug is also related to disruption of the immune system, which can lead to immune manifestations, such as infections. In addition, while isoform‐selective PI3K inhibitors are well tolerated, pan‐inhibition of PI3K is less expected that compensatory mechanisms by the action of other PI3Ks can take place. Thus, a more balanced profile of PI3K inhibition can lead to an overall lack of toxicity of PI3K inhibitors.
Sequence of HDAC3 (O15379 whole entry, canonical isoform): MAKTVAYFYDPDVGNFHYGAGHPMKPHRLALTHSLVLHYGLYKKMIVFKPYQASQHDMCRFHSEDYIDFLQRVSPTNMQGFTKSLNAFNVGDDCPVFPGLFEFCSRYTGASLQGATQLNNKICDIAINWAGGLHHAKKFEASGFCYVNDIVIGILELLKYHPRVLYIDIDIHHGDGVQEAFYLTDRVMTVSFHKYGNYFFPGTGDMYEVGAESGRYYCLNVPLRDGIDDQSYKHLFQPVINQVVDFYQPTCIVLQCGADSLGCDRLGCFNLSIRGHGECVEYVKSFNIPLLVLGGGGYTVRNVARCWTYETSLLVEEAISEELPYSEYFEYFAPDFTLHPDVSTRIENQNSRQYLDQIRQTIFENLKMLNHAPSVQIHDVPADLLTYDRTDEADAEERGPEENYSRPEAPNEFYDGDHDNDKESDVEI
Sequence of HDAC3 (Q9Y618 395-489 partner limits assumed): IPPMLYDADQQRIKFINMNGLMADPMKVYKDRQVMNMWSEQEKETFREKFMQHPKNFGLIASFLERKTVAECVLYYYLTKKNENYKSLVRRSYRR

The target of the next assay is HDAC8 (Homo sapiens, UniProt Q9BY41). Put plainly: Selectivity profile, single dose 0.5 µM, HDAC8. Format: biochemical. As to conditions: remaining enzyme activity; single‐dose duplicate mode at 0.5 μM; read-out: Enzyme % activity (relative to DMSO controls) at 0.5 µM, HDAC8. As for the experimental part:
as §1

For another assay, the target named is PI3Kβ (Homo sapiens, UniProt P42338). Put plainly: Selectivity profile, single dose 0.5 µM, PI3Kβ. Format: biochemical. The settings on record: remaining enzyme activity; single‐dose duplicate mode at 0.5 μM; read-out: Enzyme % activity (relative to DMSO controls) at 0.5 µM, PI3Kβ. As for the experimental part: as §1
Sequence of PI3Kβ (P42338 whole entry): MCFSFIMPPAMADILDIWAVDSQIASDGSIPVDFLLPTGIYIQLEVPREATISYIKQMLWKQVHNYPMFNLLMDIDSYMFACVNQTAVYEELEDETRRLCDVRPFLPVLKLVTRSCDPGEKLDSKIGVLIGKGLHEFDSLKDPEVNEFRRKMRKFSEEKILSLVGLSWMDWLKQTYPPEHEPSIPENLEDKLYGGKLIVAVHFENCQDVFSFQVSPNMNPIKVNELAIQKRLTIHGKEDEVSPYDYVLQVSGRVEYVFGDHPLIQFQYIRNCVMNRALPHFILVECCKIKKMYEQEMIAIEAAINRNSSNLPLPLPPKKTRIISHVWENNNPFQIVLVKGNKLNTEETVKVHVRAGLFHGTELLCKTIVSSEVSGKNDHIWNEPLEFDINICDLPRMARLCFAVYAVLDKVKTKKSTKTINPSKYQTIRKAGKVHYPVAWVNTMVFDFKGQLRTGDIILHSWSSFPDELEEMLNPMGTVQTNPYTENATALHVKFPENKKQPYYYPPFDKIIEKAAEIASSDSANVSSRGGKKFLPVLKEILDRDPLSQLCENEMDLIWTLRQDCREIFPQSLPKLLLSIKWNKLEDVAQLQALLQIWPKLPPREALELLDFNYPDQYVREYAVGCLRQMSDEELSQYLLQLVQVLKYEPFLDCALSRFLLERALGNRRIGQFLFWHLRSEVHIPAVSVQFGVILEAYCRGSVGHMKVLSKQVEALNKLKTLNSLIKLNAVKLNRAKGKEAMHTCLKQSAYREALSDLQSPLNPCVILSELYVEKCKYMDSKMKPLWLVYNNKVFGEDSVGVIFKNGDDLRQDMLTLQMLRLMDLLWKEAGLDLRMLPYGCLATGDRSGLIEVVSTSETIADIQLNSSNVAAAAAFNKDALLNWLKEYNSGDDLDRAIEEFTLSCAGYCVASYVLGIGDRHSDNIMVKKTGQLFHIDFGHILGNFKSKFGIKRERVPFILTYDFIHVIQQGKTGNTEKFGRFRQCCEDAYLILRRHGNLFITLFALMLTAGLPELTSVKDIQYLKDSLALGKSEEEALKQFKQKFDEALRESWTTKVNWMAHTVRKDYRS
Sequence of PI3Kβ (P27986 whole entry partner): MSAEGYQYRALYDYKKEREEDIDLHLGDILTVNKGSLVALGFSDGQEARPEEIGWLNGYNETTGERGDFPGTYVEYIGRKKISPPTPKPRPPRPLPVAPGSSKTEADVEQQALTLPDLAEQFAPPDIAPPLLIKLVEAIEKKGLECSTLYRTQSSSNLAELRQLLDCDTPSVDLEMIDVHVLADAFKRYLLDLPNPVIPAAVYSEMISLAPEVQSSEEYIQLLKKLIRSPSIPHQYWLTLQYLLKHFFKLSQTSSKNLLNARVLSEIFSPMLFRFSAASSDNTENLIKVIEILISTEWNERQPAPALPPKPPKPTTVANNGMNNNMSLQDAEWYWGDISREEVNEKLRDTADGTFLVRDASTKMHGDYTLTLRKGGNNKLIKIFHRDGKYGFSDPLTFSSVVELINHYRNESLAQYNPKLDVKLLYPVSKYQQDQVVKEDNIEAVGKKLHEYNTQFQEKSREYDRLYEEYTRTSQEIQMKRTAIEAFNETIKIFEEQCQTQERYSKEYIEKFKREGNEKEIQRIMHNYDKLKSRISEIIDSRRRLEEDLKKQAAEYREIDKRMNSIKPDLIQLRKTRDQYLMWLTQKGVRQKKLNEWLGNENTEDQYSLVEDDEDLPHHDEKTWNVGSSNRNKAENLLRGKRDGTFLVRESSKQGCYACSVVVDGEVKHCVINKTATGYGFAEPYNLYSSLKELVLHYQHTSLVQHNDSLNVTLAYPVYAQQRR
For assay [1], the system named is HDAC6 (acetylated α‐tubulin). The assay is described as follows: Western blot, acetylated α-tubulin in treated cells. Format: cell-based. The settings on record: LY2, JIMT1, MDA‐MB‐231 cells, 24 h; seen at 3 µM, further increasing at 10 µM. As for the experimental part:
(§2) FIGURE 4 Cell‐based evaluation of compounds 5a– 5f. Dose‐dependent effects of compound treatment (5a‐5f) on breast cancer cell viability across JIMT1 (A), MDA‐MB‐231 (B), and LY2 (C). Cell‐based evaluation of HDAC and PI3K inhibition by compounds 5b and 5f by Western blot. JIMT1 cells were treated for 24 h with compounds 5b (D) and 5f (E) at the concentrations of 1, 3, and 10 µM or with vehicle control (0.1% DMSO). Protein expression levels were analyzed by western blot using antibodies against acetylated α‐tubulin, acetyl H3 (H3K9Ac and H3K14Ac), phospho‐AKT (p‐AKT), and total AKT. GAPDH served as a loading control.
(§3) To investigate if 5b and 5f were acting as multitarget inhibitors, we evaluated the modulation of HDAC6 and PI3K signaling pathways by western blot analysis (Figure 4D,E). […]
(§4) Total protein samples were extracted from treated cells using a lysis buffer containing 0.1% IGEPAL CA‐630 (I8896, Merck), 0.5% deoxycholic acid (D2510, Merck), and 0.1% SDS (L3771, Merck), freshly supplemented with protease and phosphatase inhibitor cocktail (78442, Thermo Fisher Scientific). Protein concentrations were quantified using the Pierce BCA Protein Assay Kit (23227, Thermo Fisher Scientific) according to the manufacturer's instructions. […] Chemiluminescence signals were detected using the Amersham Imager 680 Imaging System. […]
(A western blot detects proteins with antibodies after separation by electrophoresis.)

For the next assay, the system named is class I HDAC (acetyl H3). Put plainly: Western blot, acetyl H3 in treated cells. Format: cell-based. The settings on record: LY2, JIMT1, MDA‐MB‐231 cells, 24 h; seen at 10 µM. As for the experimental part:
as §2, §3, §4

Molecules are shown by their SMILES.

Sequence of HDAC8 (Q9BY41 whole entry): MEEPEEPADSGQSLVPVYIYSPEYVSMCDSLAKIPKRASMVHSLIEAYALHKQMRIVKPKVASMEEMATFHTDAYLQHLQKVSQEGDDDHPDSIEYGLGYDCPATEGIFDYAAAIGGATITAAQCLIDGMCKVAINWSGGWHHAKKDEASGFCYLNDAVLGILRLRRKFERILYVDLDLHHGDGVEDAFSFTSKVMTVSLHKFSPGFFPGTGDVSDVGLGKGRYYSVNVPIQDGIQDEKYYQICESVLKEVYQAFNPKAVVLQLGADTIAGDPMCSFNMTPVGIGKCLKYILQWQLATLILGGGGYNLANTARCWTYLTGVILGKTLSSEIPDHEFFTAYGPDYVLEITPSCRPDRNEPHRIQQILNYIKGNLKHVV

`COc1ccc(-c2nc(NCc3ccc(C(=O)NO)cc3)nc(N3CCOCC3)n2)cn1` [Compound 5f, N‐Hydroxy‐4‐(((4‐(6‐Methoxypyridin‐3‐yl)‐6‐Morpholino‐1,3,5‐Triazin‐2‐yl)Amino)Methyl)Benzamide]: the IC50 (usually the concentration at which inhibition is half-maximal) with MCF‐10A cells is below 1 µM. Moreover, the remaining activity at 0.5 µM at HDAC3 is 26.6%; at HDAC8, 46.9%; at PI3Kβ it was 86.9%. In assay [1], the “Acetylated α‐tubulin level, western blot” value is listed as “accumulation of acetylated α‐tubulin”. Besides, the “Acetylation of H3, western blot” value with class I HDAC (acetyl H3) is listed as “increased levels of acetylation of H3”.
The molecule `O=C(NO)c1ccc(CNc2nc(-c3cccc(O)c3)nc(N3CCOCC3)n2)cc1` [Compound 5b, N‐Hydroxy‐4‐(((4‐(3‐Hydroxyphenyl)‐6‐Morpholino‐1,3,5‐Triazin‐2‐yl)Amino)Methyl)Benzamide] registered an IC50 in the assay with MCF‐10A cells below 1 µM. For the same molecule, the remaining activity at 0.5 µM came out at 22.6% on HDAC3, 46.3% on HDAC8 and 40.1% on PI3Kβ. Also, the “Acetylated α‐tubulin level, western blot” value in assay [1] is “accumulation of acetylated α‐tubulin”. Moreover, the “Acetylation of H3, western blot” value in the assay with class I HDAC (acetyl H3) is on record as “increased levels of acetylation of H3”.

(Values after paper PMC13110364, “Design, Synthesis, and Biological Evaluation of Novel Triazine‐Based Dual Histone Deacetylase/phosphatidylinositol 3‐kinase Inhibitors for Breast Cancer Therapy” (Chemmedchem, 2026).)
